Assay: Solubility and compatibility in seawater (SW) and formation water (FW)
Format: physicochemical
Conditions: seawater and formation water
Experimental: Synthetic seawater (SW) and formation water (FW) were prepared using NaCl, Na2SO4, NaHCO3, CaCl2, and MgCl2. All the salts were obtained from Sigma-Aldrich, USA.
Solubility and compatibility of the surfactant in the reservoir and injection brine are the primary considerations for further evaluation of the unsaturated surfactant for EOR application. If the surfactant is not soluble in the seawater and formation brine, it can be rejected at the initial stage. […] After the compatibility test with SW and FW, the short-term thermal stability of the synthesized unsaturated surfactant was evaluated using TGA analysis. […] Only 3% weight loss was observed up to 200° C., which was mainly associated with solvent and water evaporation. […] TGA results helped to identify and eliminate the surfactants that had lower decomposition temperatures. However, for real field applications, long-term thermal stability of the surfactant must be considered, as the surfactant residence time in the reservoir could vary from a few days to a few months.

- solubility in SW and FW: poor solubility
SMILES: CCCCCCCCCCCCCCCCCC(=O)NCCC[N+](C)(C)CCCS(=O)(=O)[O-] [3-(N-stearamidopropyl-N,N-dimethylammonium)propanesulfonate, reference compound]

From patent US11421145B2, “Oil recovery methods using a formulation containing an unsaturated zwitterionic surfactant and a polymer” (King Fahd University of Petroleum and Minerals, priority 2019, dated 2022)
